In paper PMC12767106, “In Situ Assembly of Transformable Monopeptide on Activated Neutrophils Attenuates NETs‐Induced Hepatocellular Carcinoma Metastasis by Disrupting NE Nuclear Translocation” (Advanced Science, 2025):

Tests used:
[1] = system: Hepa1-6/luc HCC xenograft; experiment: Subcutaneous Hepa1-6/luc tumor model, tumor growth; format: in vivo, mouse; conditions: C57BL/6J mice, 300 µM in 200 µL i.v. five times every two days; aPD-1 200 µg i.p. every 4 days, 3 doses; n = 5
Protocol: Submitted to Advanced Science
Total RNA was extracted and purified using a miRNeasy Mini Kit (FOREGENE, China). Quantitative real-time polymerase chain reaction (qRT-PCR) was performed in triplicate in the ABI 7500 fast real-time PCR System (Applied Biosystems, USA). The mRNAs were normalized with 18s. The following primers were used for PCR detection: E-cadherin, N-cadherin, Vimentin, and α-catenin.
Western blot analysis was performed to evaluate the levels of relative proteins in Hepa1-6/luc cells and Neutrophils.38 To evaluate NETs release, the neutrophils were exposed to PMA, PMA+NFTP -NPs, and PMA+FTP-NPs for 12 h. Following treatment, the cells underwent three PBS washes for WB to measure the expression of CitH3 proteins (Cat. no. ab5103, Abcam, Cambridge, England , UK). Furthermore, to evaluate EMT of Hepa1-6/luc cells, the cells underwent three PBS washes for WB to measure the expression of E - cadherin (Abmart, China), N-cadherin (Abmart, China), Vimentin (Abmart, China) , and β-catenin (Abmart, […]
In vivo subcutaneously implanted tumor models
The C57BL/6J mice with subcutaneous Hepa1-6/luc xenografts (grew up to roughly 100 mm 3) were separated into four groups according to the different treatments to perform the in vivo tumor therapy. […] Throughout the experiment, the tumor volumes and body weight were measured once every four days. […]

activated neutrophils = experiment: Recognition of activated versus resting neutrophils, flow cytometry of PpIX; format: cell-based, mouse; conditions: 50 µM, 1 h, neutrophils activated with PMA 100 nM, n = 3
Hepa1-6 cells = experiment: Trans-endothelial invasion assay; format: cell-based, mouse; conditions: 48 h, versus Control group
Protocol: Cell migration and invasion assay […]
(§1) Matrigel tube formation assay
Murine C166 endothelial cells (3×10^4cells/well) were placed on 96-well plates coated with Matrigel (356231, Corning, New York, USA) and incubated with various treatments. […]
(§2) In vitro permeability assays and trans-endothelial invasion assays
For in vitro permeability assays, C166 cells were treated with Resting neutrophils, Control, NFTP-NPs, FTP-NPs, and NEi groups for 48 h to form an endothelial monolayer, and then Evans Blue (PHYGENE, China) was added to the upper layer of the transwell filters (0.4 μm, Corning). After 30 min, the medium in the lower layer of the chamber was collected to measure the absorbance at 620 nm (Tecan Infinite M200, Switzerland).
For trans-endothelial invasion assays, […] Hepa1-6/luc cells were seeded into transwell filters (8 μm, Corning) with endothelial cell monolayers pretreated with resting neutrophils, Control, NFTP-NPs, FTP-NPs, and NEi groups. After incubation for 48 h, the transmembrane cells were washed, fixed with 4% paraformaldehyde, stained with crystal violet, and observed under a microscope (Axiovert 200, Zeiss, Germany).
(§3) All the experiments were performed thrice. […]

[2] = system: Hepa1-6/luc murine HCC cells; experiment: CCK-8 cytotoxicity; format: cell-based, mouse; conditions: CCK-8, 24 h, different dosages
Protocol: 10 minutes to remove unbound particles, and the supernatant was collected. […]
In vitro cytotoxicity assay
The CCK-8 assay was used to assess the cell viability of Hepa1-6/luc, resting neutrophils, and activated neutrophils. Following the seeding of 1*10^4 cells per well on a 96-well plate, the cells were subjected to different dosages of FTP-NPs and NFTP-NPs (medium: DMSO = 99:1 v/v). After 24 hours, the cells were incubated for two hours with 10 µL of CCK-8 solution. Finally, a microplate reader (Tecan Infinite M200, Switzerland) was used to measure cell viability based on the absorbance values.
Targeting the capability of NEBP
To evaluate the targeting capability of NE-binding peptide (NEBP), the harvested resting neutrophils and […]

C166 endothelial cells = experiment: Matrigel tube formation assay; format: cell-based, mouse; conditions: 6 h, versus Control and NFTP-NPs groups
Protocol: as §1
Murine C166 endothelial cells (3×10^4cells/well) were placed on 96-well plates coated with Matrigel (356231, Corning, New York, USA) and incubated with various treatments. After incubation for six h, capillary-like structures were observed and counted under a microscope (Axiovert 200, Zeiss, Germany). All the experiments […]
as §2
For in vitro permeability assays, C166 cells were treated with Resting neutrophils, Control, NFTP-NPs, FTP-NPs, and NEi groups for 48 h to form an endothelial monolayer, and then Evans Blue (PHYGENE, China) was added to the upper layer of the transwell filters (0.4 μm, Corning). […]
as §3

Substance: PpIX-GFFVLK-EAIPMSIPPEVK [FTP-NPs]
- tumor growth / increase in tumor volume [1]: significant efficacy in suppressing tumor growth
- PpIX fluorescence of activated neutrophils relative to resting neutrophils (activated neutrophils): about 2.8 times
- number of Hepa1-6 cells passing through the endothelial monolayer (Hepa1-6 cells): significantly lower
- survival rate [2]: over 95%
- number of tubular structures formed (C166 endothelial cells): significantly lower
